Laboratory results from patent US11427558B1, “Indazoles and azaindazoles as LRRK2 inhibitors” (ESCAPE Bio, Inc., priority 2019, dated 2022).
pIC50: −log10 of the molar value.

Assays:
[1] = target: Recombinant G2019S-LRRK2 protein (Homo sapiens (Human), UniProt Q5S007, G2019S); assay: LRRK2 kinase activity, LanthaScreen TR-FRET assay (G2019S); format: biochemical; conditions: LRRKtide 400 nM, 25 μM ATP, 60 min
Protocol: (§1) LRRK2 kinase activity was measured using a LanthaScreen™ Kinase Activity Assay from ThermoFisher Scientific. Recombinant wild type or G2019S-LRRK2 protein (Life Technologies, PR8604B or PV4881, respectively), was incubated with a fluorescein-labeled peptide substrate called LRRKtide that is based upon ezrin/radixin/moesin (ERM) (Life Technologies, PV4901) in the presence of ATP and serially diluted compound. […] Compound-dependent inhibition of the TR-FRET signal was used to generate a concentration-response curve for IC50 determination.
(§2) After 60 min incubation at room temperature, the reaction was stopped by addition of 10 μL of 2× stop solution containing a final concentration of 2 nM anti-pERM antibody and 10 mM EDTA. […] The ratio of the 520 nm and 495 nm emission was used to analyze the data.

[2] = target: Recombinant wild type LRRK2 protein (Homo sapiens (Human), UniProt Q5S007); assay: LRRK2 kinase activity, LanthaScreen TR-FRET assay (wild type); format: biochemical; conditions: LRRKtide 400 nM, 25 μM ATP, 60 min; read-out: LRRK2 WT IC50
Protocol: as §1, §2

Chain of Recombinant G2019S-LRRK2 protein (Q5S007 whole entry G2019S): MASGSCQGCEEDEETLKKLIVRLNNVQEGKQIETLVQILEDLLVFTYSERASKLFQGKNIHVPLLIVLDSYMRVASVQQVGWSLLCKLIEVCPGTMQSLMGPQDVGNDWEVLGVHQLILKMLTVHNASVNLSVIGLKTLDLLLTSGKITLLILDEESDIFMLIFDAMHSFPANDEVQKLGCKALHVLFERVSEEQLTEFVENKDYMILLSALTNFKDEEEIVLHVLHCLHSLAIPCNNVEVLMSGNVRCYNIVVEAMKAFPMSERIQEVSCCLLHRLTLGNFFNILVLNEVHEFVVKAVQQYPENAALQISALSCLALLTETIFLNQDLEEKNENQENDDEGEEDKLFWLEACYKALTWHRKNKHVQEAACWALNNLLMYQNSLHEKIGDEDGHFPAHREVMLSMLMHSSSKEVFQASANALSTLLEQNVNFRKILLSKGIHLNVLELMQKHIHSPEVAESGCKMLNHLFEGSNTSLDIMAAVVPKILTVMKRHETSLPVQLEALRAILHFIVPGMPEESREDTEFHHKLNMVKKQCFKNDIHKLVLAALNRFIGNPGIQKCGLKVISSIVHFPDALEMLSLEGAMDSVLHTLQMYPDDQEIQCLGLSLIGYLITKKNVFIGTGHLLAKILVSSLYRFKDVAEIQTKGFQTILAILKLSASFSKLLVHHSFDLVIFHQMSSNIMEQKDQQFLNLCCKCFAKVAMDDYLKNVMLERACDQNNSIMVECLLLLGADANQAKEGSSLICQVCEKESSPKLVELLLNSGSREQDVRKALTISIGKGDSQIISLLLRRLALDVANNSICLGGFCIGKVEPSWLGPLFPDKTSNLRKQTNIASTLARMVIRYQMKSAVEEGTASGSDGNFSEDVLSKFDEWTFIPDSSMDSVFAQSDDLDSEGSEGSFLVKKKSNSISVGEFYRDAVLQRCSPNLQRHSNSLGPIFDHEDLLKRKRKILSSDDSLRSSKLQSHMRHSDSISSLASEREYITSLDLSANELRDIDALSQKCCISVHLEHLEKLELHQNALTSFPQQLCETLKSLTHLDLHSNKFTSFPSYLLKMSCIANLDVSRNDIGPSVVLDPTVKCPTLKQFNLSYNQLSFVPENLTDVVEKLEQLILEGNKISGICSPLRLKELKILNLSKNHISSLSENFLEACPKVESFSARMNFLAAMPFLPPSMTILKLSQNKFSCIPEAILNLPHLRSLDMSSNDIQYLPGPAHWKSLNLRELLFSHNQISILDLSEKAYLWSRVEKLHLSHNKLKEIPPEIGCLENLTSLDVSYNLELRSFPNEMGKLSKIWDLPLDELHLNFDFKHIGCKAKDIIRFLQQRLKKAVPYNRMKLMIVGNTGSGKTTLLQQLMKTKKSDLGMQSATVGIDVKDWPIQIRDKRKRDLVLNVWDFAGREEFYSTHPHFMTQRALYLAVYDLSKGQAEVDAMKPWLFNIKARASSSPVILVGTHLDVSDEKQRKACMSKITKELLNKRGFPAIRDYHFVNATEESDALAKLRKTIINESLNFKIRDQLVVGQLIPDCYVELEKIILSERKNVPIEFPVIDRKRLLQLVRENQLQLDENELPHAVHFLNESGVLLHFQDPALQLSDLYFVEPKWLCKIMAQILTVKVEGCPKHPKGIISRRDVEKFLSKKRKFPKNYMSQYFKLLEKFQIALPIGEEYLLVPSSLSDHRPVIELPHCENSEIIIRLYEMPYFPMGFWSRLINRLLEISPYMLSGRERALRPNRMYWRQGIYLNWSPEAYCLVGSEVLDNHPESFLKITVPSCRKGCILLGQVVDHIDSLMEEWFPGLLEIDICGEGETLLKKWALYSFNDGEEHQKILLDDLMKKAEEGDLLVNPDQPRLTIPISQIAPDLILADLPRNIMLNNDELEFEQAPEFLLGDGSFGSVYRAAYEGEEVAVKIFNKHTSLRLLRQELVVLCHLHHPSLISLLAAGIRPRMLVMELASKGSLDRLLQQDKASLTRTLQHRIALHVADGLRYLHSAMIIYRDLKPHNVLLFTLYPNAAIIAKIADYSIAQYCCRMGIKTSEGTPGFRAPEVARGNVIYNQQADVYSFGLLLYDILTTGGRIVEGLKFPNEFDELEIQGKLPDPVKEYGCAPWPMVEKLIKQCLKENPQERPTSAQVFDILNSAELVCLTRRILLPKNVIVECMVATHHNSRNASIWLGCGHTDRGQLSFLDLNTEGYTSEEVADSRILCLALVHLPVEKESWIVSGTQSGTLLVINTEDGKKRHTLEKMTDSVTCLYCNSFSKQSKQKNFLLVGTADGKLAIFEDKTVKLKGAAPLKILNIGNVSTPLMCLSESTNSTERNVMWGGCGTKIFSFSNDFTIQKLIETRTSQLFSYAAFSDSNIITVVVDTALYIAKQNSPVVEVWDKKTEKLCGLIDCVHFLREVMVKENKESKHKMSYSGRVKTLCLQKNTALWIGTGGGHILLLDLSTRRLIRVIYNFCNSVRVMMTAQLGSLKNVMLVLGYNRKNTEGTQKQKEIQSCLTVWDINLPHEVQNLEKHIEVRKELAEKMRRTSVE
Chain of Recombinant wild type LRRK2 protein (Q5S007 whole entry): as the sequence (Q5S007 whole entry G2019S) above, with S2019G counted along it

Cc1cc(C#N)cnc1C(=O)Nc1ccc2[nH]nc(-c3ccc(N4CCN(C)CC4)cc3)c2c1 [Example 45, 5-Cyano-3-methyl-N-(3-(4-(4-methylpiperazin-1-yl)phenyl)-1H-indazol-5-yl)picolinamide]
pIC50 [1]: > 7.00 | pIC50 [2]: > 7.00

COc1cc(F)cc(-c2n[nH]c3ccc(NC(=O)c4ncc(C#N)cc4C)cc23)c1 [Example 46, 5-Cyano-N-(3-(3-fluoro-5-methoxyphenyl)-1H-indazol-5-yl)-3-methylpicolinamide]
pIC50 [1]: > 7.00 | pIC50 [2]: 6.00 to 7.00

COc1ccc(-c2n[nH]c3ccc(NC(=O)c4ncc(C#N)cc4C)cc23)cc1 [Example 47, 5-Cyano-N-(3-(4-methoxyphenyl)-1H-indazol-5-yl)-3-methylpicolinamide]
pIC50 [1]: > 7.00 | pIC50 [2]: 6.00 to 7.00

COc1cc(-c2n[nH]c3ccc(NC(=O)c4ncc(C#N)cc4C)cc23)ccn1 [Example 48, 5-Cyano-N-(3-(2-methoxypyridin-4-yl)-1H-indazol-5-yl)-3-methylpicolinamide]
pIC50 [1]: > 7.00 | pIC50 [2]: 6.00 to 7.00

Cc1cc(C#N)ncc1C(=O)Nc1ccc2[nH]nc(-c3ccoc3)c2c1 [Example 49, 6-Cyano-N-(3-(furan-3-yl)-1H-indazol-5-yl)-4-methylnicotinamide]
pIC50 [1]: > 7.00 | pIC50 [2]: 6.00 to 7.00

Cc1cc(C#N)cnc1C(=O)Nc1ccc2[nH]nc(-c3cccnc3)c2c1 [Example 50, 5-Cyano-3-methyl-N-(3-(pyridin-3-yl)-1H-indazol-5-yl)picolinamide]
pIC50 [1]: > 7.00 | pIC50 [2]: 6.00 to 7.00

Cc1cc(-c2n[nH]c3ccc(NC(=O)c4ncc(C#N)cc4C)cc23)ccc1F [Example 51, 5-Cyano-N-(3-(4-fluoro-3-methylphenyl)-1H-indazol-5-yl)-3-methylpicolinamide]
pIC50 [1]: > 7.00 | pIC50 [2]: 6.00 to 7.00

COc1ccc(-c2n[nH]c3ccc(NC(=O)c4ncc(C#N)cc4C)cc23)cn1 [Example 52, 5-Cyano-N-(3-(6-methoxypyridin-3-yl)-1H-indazol-5-yl)-3-methylpicolinamide]
pIC50 [1]: > 7.00 | pIC50 [2]: 6.00 to 7.00

COc1cccc(-c2n[nH]c3ccc(NC(=O)c4ncc(C#N)cc4C)cc23)c1 [Example 53, 5-Cyano-N-(3-(3-methoxyphenyl)-1H-indazol-5-yl)-3-methylpicolinamide]
pIC50 [1]: > 7.00 | pIC50 [2]: 6.00 to 7.00

Cc1cc(C#N)cnc1C(=O)Nc1ccc2[nH]nc(-c3cccc(OC(F)(F)F)c3)c2c1 [Example 54, 5-Cyano-3-methyl-N-(3-(3-(trifluoromethoxy)phenyl)-1H-indazol-5-yl)picolinamide]
pIC50 [1]: 6.00 to 7.00 | pIC50 [2]: 5.00 to 6.00

Cc1ccc(-c2n[nH]c3ccc(NC(=O)c4ncc(C#N)cc4C)cc23)cn1 [Example 55, 5-Cyano-3-methyl-N-(3-(6-methylpyridin-3-yl)-1H-indazol-5-yl)picolinamide]
pIC50 [1]: > 7.00 | pIC50 [2]: 6.00 to 7.00

Cc1ccc(-c2n[nH]c3ccc(NC(=O)c4ncc(C#N)cc4C)cc23)cc1 [Example 56, 5-Cyano-3-methyl-N-(3-(p-tolyl)-1H-indazol-5-yl)picolinamide]
pIC50 [1]: > 7.00 | pIC50 [2]: 6.00 to 7.00

Cc1cc(C#N)cnc1C(=O)Nc1ccc2[nH]nc(-c3cnn(C)c3)c2c1 [Example 57, 5-Cyano-3-methyl-N-(3-(1-methyl-1H-pyrazol-4-yl)-1H-indazol-5-yl)picolinamide]
pIC50 [1]: > 7.00 | pIC50 [2]: > 7.00

Cc1cccc(-c2n[nH]c3ccc(NC(=O)c4ncc(C#N)cc4C)cc23)c1 [Example 58, 5-Cyano-3-methyl-N-(3-(m-tolyl)-1H-indazol-5-yl)picolinamide]
pIC50 [1]: > 7.00 | pIC50 [2]: 6.00 to 7.00

Cc1cc(C#N)cnc1C(=O)Nc1ccc2[nH]nc(-c3cccc(C(F)(F)F)c3)c2c1 [Example 59, 5-Cyano-3-methyl-N-(3-(3-(trifluoromethyl)phenyl)-1H-indazol-5-yl)picolinamide]
pIC50 [1]: > 7.00 | pIC50 [2]: 6.00 to 7.00

Cc1cc(C#N)cnc1C(=O)Nc1ccc2[nH]nc(-c3ccc(C(F)(F)F)nc3)c2c1 [Example 60, 5-Cyano-3-methyl-N-(3-(6-(trifluoromethyl)pyridin-3-yl)-1H-indazol-5-yl)picolinamide]
pIC50 [1]: 6.00 to 7.00 | pIC50 [2]: 5.00 to 6.00

Cc1cc(F)cc(-c2n[nH]c3ccc(NC(=O)c4ncc(C#N)cc4C)cc23)c1 [Example 61, 5-Cyano-N-(3-(3-fluoro-5-methylphenyl)-1H-indazol-5-yl)-3-methylpicolinamide]
pIC50 [1]: > 7.00 | pIC50 [2]: 6.00 to 7.00

Cc1cc(C#N)cnc1C(=O)Nc1ccc2[nH]nc(-c3cccc(C4CC4)c3)c2c1 [Example 62, 5-cyano-N-(3-(3-cyclopropylphenyl)-1H-indazol-5-yl)-3-methylpicolinamide]
pIC50 [1]: > 7.00 | pIC50 [2]: 6.00 to 7.00

Cc1ccc(-c2n[nH]c3ccc(NC(=O)c4ncc(C#N)cc4C)cc23)cc1F [Example 63, 5-Cyano-N-(3-(3-fluoro-4-methylphenyl)-1H-indazol-5-yl)-3-methylpicolinamide]
pIC50 [1]: > 7.00 | pIC50 [2]: 6.00 to 7.00

N#Cc1cnc(C(=O)Nc2ccc3[nH]nc(-c4ccoc4)c3c2)c(C(F)F)c1 [Example 64, 5-Cyano-3-(difluoromethyl)-N-(3-(furan-3-yl)-1H-indazol-5-yl)picolinamide]
pIC50 [1]: > 7.00 | pIC50 [2]: 6.00 to 7.00

N#Cc1cnc(C(=O)Nc2ccc3[nH]nc(-c4ccoc4)c3c2)s1 [Example 65, 5-Cyano-N-(3-(furan-3-yl)-1H-indazol-5-yl)thiazole-2-carboxamide]
pIC50 [1]: > 7.00 | pIC50 [2]: > 7.00

N#Cc1cnc(C(=O)Nc2ccc3[nH]nc(-c4ccoc4)c3c2)cc1Cl [Example 66, 4-Chloro-5-cyano-N-(3-(furan-3-yl)-1H-indazol-5-yl)picolinamide]
pIC50 [1]: 6.00 to 7.00 | pIC50 [2]: 6.00 to 7.00

Cc1c(C#N)cnc(C(=O)Nc2ccc3[nH]nc(-c4ccoc4)c3c2)c1C [Example 67, 5-Cyano-N-(3-(furan-3-yl)-1H-indazol-5-yl)-3,4-dimethylpicolinamide]
pIC50 [1]: > 7.00 | pIC50 [2]: > 7.00

COc1cncc(-c2n[nH]c3ccc(NC(=O)c4ncc(C#N)cc4C)cc23)c1 [Example 68, 5-Cyano-N-(3-(5-methoxypyridin-3-yl)-1H-indazol-5-yl)-3-methylpicolinamide]
pIC50 [1]: > 7.00 | pIC50 [2]: 6.00 to 7.00

COc1cc(C#N)cnc1C(=O)Nc1ccc2[nH]nc(-c3ccoc3)c2c1 [Example 69, 5-Cyano-N-(3-(furan-3-yl)-1H-indazol-5-yl)-3-methoxypicolinamide]
pIC50 [1]: > 7.00 | pIC50 [2]: 6.00 to 7.00

Cc1cc(C#N)cnc1C(=O)Nc1ccc2[nH]nc(-c3ccc(N4CCOCC4)cc3)c2c1 [Example 70, 5-Cyano-3-methyl-N-(3-(4-morpholinophenyl)-1H-indazol-5-yl)picolinamide]
pIC50 [1]: > 7.00 | pIC50 [2]: 6.00 to 7.00

Cc1cc(C#N)cnc1C(=O)Nc1ccc2[nH]nc(-c3ccc4ocnc4c3)c2c1 [Example 71, N-(3-(Benzo[d]oxazol-5-yl)-1H-indazol-5-yl)-5-cyano-3-methylpicolinamide]
pIC50 [1]: > 7.00 | pIC50 [2]: 6.00 to 7.00

COc1c(C#N)cccc1C(=O)Nc1ccc2[nH]nc(-c3ccoc3)c2c1 [Example 72, 3-Cyano-N-(3-(furan-3-yl)-1H-indazol-5-yl)-2-methoxybenzamide]
pIC50 [1]: > 7.00 | pIC50 [2]: > 7.00

Cc1cc(C#N)cnc1C(=O)Nc1ccc2[nH]nc(-c3ccsc3)c2c1 [Example 73, 5-Cyano-3-methyl-N-(3-(thiophen-3-yl)-1H-indazol-5-yl)picolinamide]
pIC50 [1]: > 7.00 | pIC50 [2]: 6.00 to 7.00
